{"source": "patent US20200040348A1", "about": "“CONTROL OF VIRAL AND BACTERIAL INFECTION BY ANTIMICROBIAL PEPTIDES RETROCYCLIN AND/OR PROTEGRIN EXPRESSED IN CHLOROPLASTS” (THE TRUSTEES OF THE UNIVERSITY OF PENNSYLVANIA, priority 2010, published 2020)", "key": {"[1]": {"tested_on": "tobacco mosaic virus (TMV)", "format": "in vivo", "details": "transplastomic tobacco plants, within 20 days after inoculation"}, "[2]": {"tested_on": "Erwinia carotovora", "assay": "In planta assay for resistance to Erwinia soft rot (syringe or sandpaper inoculation of tobacco leaves)", "format": "in vivo", "details": "mature transplastomic tobacco leaves; for necrosis at the site of inoculation: sand paper method, up to 10^8 E. carotovora cells; for necrosis surrounding the point of inoculation: syringe method, 10^8, 10^6, 10^4 and 10^2 E. carotovora cells, peptide expressed in chloroplasts"}, "[3]": {"tested_on": "HIV-1", "details": "organ-like construct of human cervicovaginal tissue; cited from earlier work"}, "[4]": {"tested_on": "Erwinia carotovora", "assay": "Erwinia carotovora inoculation and bacterial count in tobacco leaves", "format": "in vivo", "details": "plants inoculated with 1.0×10^5 cfu/ml E. carotovora", "experimental": "The leaves of untransformed and transplastomic tobacco plants were inoculated with 20 μl of bacterial suspension (1.0×10^5 cfu/ml) through a syringe. Each leaf disc (0.8 cm diameter) was punched off from the inoculated area of an individual plant after 0, 1 or 3 days of incubation. The bacterial population inside the leaf was calculated as follows. Leaf tissue was ground in 100 μl sterilized water in a microcentrifuge tube. The suspension was serially diluted with sterilized water and was then plated on nutrient broth agar plates (Difco). Colonies were counted after one day of incubation at 25° C."}, "[5]": {"tested_on": "gram-positive or gram-negative bacteria", "details": "cited from earlier work"}, "[6]": {"tested_on": "T-tropic and M-tropic strains of HIV-1", "details": "human CD4+ lymphocytes, in vitro; cited from earlier work"}, "[7]": {"tested_on": "vegetative B. anthracis cells", "details": "cited from earlier work"}}, "note": "“Also recorded” adds a separate entry of the source. Where no end group is shown, it is not given here."}
{"substance": "Retrocyclin-101 [RC101]", "values": [{"measurement": "symptoms of TMV infection", "setting": "[1]", "value": "didn't show obvious symptoms of TMV infection; also recorded: resistant to TMV infection"}, {"measurement": "necrosis at the site of inoculation", "setting": "[2]", "value": "no necrosis"}, {"measurement": "necrosis surrounding the point of inoculation", "setting": "[2]", "value": "no areas of necrosis"}, {"measurement": "amount that prevents HIV-1 infection", "setting": "[3]", "value": 2, "unit": "µg"}, {"measurement": "symptoms of necrosis", "setting": "[4]", "value": "no apparent symptoms of necrosis"}]}
{"substance": "Protegrin-1 (RGGRLCYCRRRFCVCVGR; not fully specified (bridges); ends and bridges not checked; also: two disulfide bonds, pairing not given here) [PG1]", "values": [{"measurement": "symptoms of TMV infection", "setting": "[1]", "value": "typical mosaic, necrosis and wrinkle symptoms; also recorded: not effective"}, {"measurement": "minimum inhibitory concentrations", "setting": "[5]", "value": "0.12 to 2", "unit": "µg/mL"}, {"measurement": "necrosis at the site of inoculation", "setting": "[2]", "value": "mild discoloration"}, {"measurement": "necrosis surrounding the point of inoculation", "setting": "[2]", "value": "no areas of necrosis"}, {"measurement": "symptoms of necrosis", "setting": "[4]", "value": "no apparent symptoms of necrosis"}]}
{"substance": "Retrocyclin", "values": [{"measurement": "concentration that inhibits proviral DNA formation and protects from infection", "setting": "[6]", "value": "10 to 20", "unit": "µg/mL"}]}
{"substance": "Retrocyclin-1", "values": [{"measurement": "minimum effective concentration", "setting": "[7]", "value": "< 1", "unit": "µg/mL"}]}
